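Exposure lasted 48 hours, with cells grown in 96-well plates and compounds tested at five concentrations. Abbreviation: GI50, concentration required for 50% inhibition of growth.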 Calls of active or inactive are those of the source. No stated cut-off is given here; in the data, active = GI50 up to about 1.1 µM and inactive = higher.

The results in this text go back to ChEMBL document CHEMBL1201862, “PubChem BioAssay data set” (2004).

Some test systems named below: Hs-578T; UACC-257; SN12C; SK-MEL-2; SK-MEL-5; OVCAR-5; BT-549; OVCAR-8; HOP-62; K562; HOP-92; HL-60; OVCAR-3; OVCAR-4; NCI-H226; 786-0; SF-539; SF-268; RXF 393.
What all share (assay): growth of human tumour cells (NCI), 48 h

Consider `CCCCCCOP(=O)(OCCCCCC)OC(C(=O)OC)C(F)(F)F` (stereo not given), for which the GI50 with Hs-578T, in the assay with UACC-257, in the assay on SN12C, in the assay with SK-MEL-2, with SK-MEL-5 and in the assay with OVCAR-5 was > 100 µM (inactive) throughout. Further, the GI50 in the assay with BT-549, in the assay with OVCAR-8, in the assay with HOP-62, in the assay with K562, with HOP-92 and in the assay on HL-60 was > 100 µM (inactive) in each case. Besides, the GI50 in the assay with OVCAR-3, in the assay on OVCAR-4, in the assay with NCI-H226, with 786-0, with SF-539 and with SF-268 was > 100 µM (inactive) throughout.

On to `Cc1nc2ccccc2n1Cc1nnc(N)o1`, for which the GI50 in the assay on RXF 393, in the assay on Hs-578T, with UACC-257, with SN12C, in the assay with SK-MEL-2 and in the assay with SK-MEL-5 was > 100 µM (inactive) each time. The GI50 with OVCAR-5, in the assay on BT-549, with OVCAR-8, in the assay on HOP-62, in the assay on K562 and in the assay on HOP-92 was > 100 µM (inactive) throughout. Also, the GI50 in the assay with HL-60, in the assay on OVCAR-3, in the assay on 786-0, with SF-539 and in the assay on SF-268 was > 100 µM (inactive) each time.

As for `CCOC(=O)C1=C(C)N(c2ccc(Cl)cc2)C2(O)C=CC(=O)C3C(=O)N(c4ccccc4)C(=O)C132` (stereo not given), the GI50 with RXF 393 is 1.76 µM (inactive); in the assay on Hs-578T it was 2.39 µM (inactive); in the assay with UACC-257, 2.29 µM (inactive); in the assay on SN12C it was 2.3 µM (inactive); in the assay with SK-MEL-2, 1.78 µM (inactive); in the assay with SK-MEL-5 it was 1.6 µM (inactive). Further, the GI50 in the assay with OVCAR-5 is 2.01 µM (inactive); in the assay on BT-549 it was 2.25 µM (inactive); in the assay on OVCAR-8, 2.12 µM (inactive); with HOP-62, 2.02 µM (inactive); with K562, 3.08 µM (inactive); with HOP-92, 0.0649 µM (active). Moreover, the GI50 with HL-60 was 2.76 µM (inactive); with OVCAR-3, 1.28 µM (inactive); with OVCAR-4, 1.54 µM (inactive); in the assay on 786-0, 1.53 µM (inactive); with SF-539, 2.27 µM (inactive); in the assay on SF-268, 1.76 µM (inactive).

Regarding `COc1ccc(-c2c3c(n(C4OC(CO)C(O)C(O)C4O)c(=S)c2C#N)CCC3)cc1` (stereo not given), the GI50 in the assay on RXF 393 is 22.4 µM (inactive); in the assay on Hs-578T, 38.7 µM (inactive); with UACC-257, > 100 µM (inactive); in the assay with SN12C, 37 µM (inactive); with SK-MEL-2, 58.5 µM (inactive); in the assay on SK-MEL-5, 14.8 µM (inactive). Further, the GI50 is 74.6 µM (inactive) with OVCAR-5; 51.2 µM (inactive) with BT-549; 40 µM (inactive) in the assay on HOP-62; 41.9 µM (inactive) in the assay on K562; 28.6 µM (inactive) with HOP-92; 34.7 µM (inactive) in the assay on HL-60. Besides, the GI50 in the assay on OVCAR-3 was 25.7 µM (inactive); in the assay with OVCAR-4, 79.1 µM (inactive); in the assay with 786-0, 36 µM (inactive); in the assay on SF-539, 20.4 µM (inactive); in the assay with SF-268, 62.8 µM (inactive).
